Laboratory results taken from patent US6355799B1, “Substituted benzene compounds, process for their preparation, and herbicidal and defoliant compositions containing them” (ISK Americas Incorporated, priority 1997, dated 2002).

What was measured:
Format in all cases: in vivo
[1] = system: redroot pigweed (Amaranthus retroflexus, AMARE); assay: Pre-emerge test, greenhouse herbicide activity screening
Outline: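 Rating: 0–100 visual injury, 14 DAA. Application: acetone, 187 l/ha, 15–1000 g ai/ha, flat-fan track sprayer with nozzle 40–45 cm above soil or canopy. Post-emerge runs used 0.25% v/v surfactant on 2–3 leaf plants.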

[2] = system: field corn (Zea mays L., var. Dekalb 535, CORN); assay: Pre-emerge test, crop safety
Outline: (§1)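 Applied at 15–1000 g ai/ha from acetone in 187 l/ha spray volume. Post-emergence applications included 0.25% v/v non-ionic surfactant and reached plants sown 8–21 days before. Pre-emergence applications were incorporated by surface watering. Efficacy or crop damage was rated on a 0–100 scale after 14 days.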

[3] = system: upland rice (Oryza sp., var. Tebonnet, RICE); assay: Pre-emerge test, crop safety
Outline: as §1

[4] = system: velvetleaf (Abutilon theophrasti, ABUTH); assay: Pre-emerge test, greenhouse herbicide activity screening
Outline: (§2)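 Sandy loam pots; pre-emerge: sown 1 d pre-spray, surface-watered after, then bottom-watered. Post-emerge: sown 8–21 d before, 2–3 leaf stage, + 0.25% v/v NIS, bottom-watered. Acetone, 187 l/ha track spray, 15–1000 g ai/ha. 0–100 injury score, day 14.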

[5] = system: green foxtail (Setaria viridis, SETVI); assay: as above
Outline: as §2

[6] = system: barnyardgrass (Echinochloa crus-galli, ECHCG); assay: as above
Outline: as §2

[7] = system: johnsongrass (Sorghum halepense, SORHA); assay: as above
Outline: as §2

[8] = system: sicklepod (Cassia obtusifolia, CASOB); assay: as above
Outline: as §2

[9] = system: large crabgrass (Digitaria sanguinalis, DIGSA); assay: as above
Outline: as §2

[10] = system: lambsquarters (Chenopodium album, CHEAL); assay: as above
Outline: as §2

[11] = system: ivyleaf morningglory (Ipomoea hederacea, IPOHE); assay: as above
Outline: as §2

[12] = system: field corn (Zea mays L., var. Dekalb 535, CORN); assay: Post-emerge test, crop safety; conditions: post-emerge; for phytotoxicity rating CORN (crop damage): 14 days after application, rating scale 0-100; for Post-emerge Herbicidal Activity CORN: crop damage rating 0-100 at 14 days after application
Outline: as §2

[13] = system: upland rice (Oryza sp., var. Tebonnet, RICE); assay: Post-emerge test, crop safety; conditions: post-emerge; for phytotoxicity rating RICE (crop damage): 14 days after application, rating scale 0-100; for Post-emerge Herbicidal Activity RICE: crop damage rating 0-100 at 14 days after application
Outline: as §2

[14] = system: velvetleaf (Abutilon theophrasti, ABUTH); assay: Post-emerge test, greenhouse herbicide activity screening; conditions: post-emerge; for phytotoxicity rating ABUTH: 14 days after application, rating scale 0-100; for Post-emerge Herbicidal Activity ABUTH: phytotoxicity rating 0-100 at 14 days after application
Outline: (§3)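 Plants grown in 10 cm pots of sandy loam mix received acetone-dissolved compounds through a moving flat-fan nozzle. Doses ranged from 15 to 1000 g ai/ha. Pre-emerge pots were seeded one day earlier, post-emerge pots 8–21 days earlier. Fourteen days on, each pot was graded 0–100 for damage.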

[15] = system: green foxtail (Setaria viridis, SETVI); assay: as above; conditions: post-emerge; for phytotoxicity rating SETVI: 14 days after application, rating scale 0-100; for Post-emerge Herbicidal Activity SETVI: phytotoxicity rating 0-100 at 14 days after application
Outline: as §3

[16] = system: barnyardgrass (Echinochloa crus-galli, ECHCG); assay: as above; conditions: post-emerge; for phytotoxicity rating ECHCG: 14 days after application, rating scale 0-100; for Post-emerge Herbicidal Activity ECHCG: phytotoxicity rating 0-100 at 14 days after application
Outline: as §3

[17] = system: johnsongrass (Sorghum halepense, SORHA); assay: as above; conditions: post-emerge; for phytotoxicity rating SORHA: 14 days after application, rating scale 0-100; for Post-emerge Herbicidal Activity SORHA: phytotoxicity rating 0-100 at 14 days after application
Outline: as §3

[18] = system: sicklepod (Cassia obtusifolia, CASOB); assay: as above; conditions: post-emerge; for phytotoxicity rating CASOB: 14 days after application, rating scale 0-100; for Post-emerge Herbicidal Activity CASOB: phytotoxicity rating 0-100 at 14 days after application
Outline: as §3

[19] = system: large crabgrass (Digitaria sanguinalis, DIGSA); assay: as above; conditions: post-emerge; for phytotoxicity rating DIGSA: 14 days after application, rating scale 0-100; for Post-emerge Herbicidal Activity DIGSA: phytotoxicity rating 0-100 at 14 days after application
Outline: as §3

[20] = system: lambsquarters (Chenopodium album, CHEAL); assay: as above; conditions: post-emerge; for phytotoxicity rating CHEAL: 14 days after application, rating scale 0-100; for Post-emerge Herbicidal Activity CHEAL: phytotoxicity rating 0-100 at 14 days after application
Outline: as §3

[21] = system: redroot pigweed (Amaranthus retroflexus, AMARE); assay: as above; conditions: post-emerge; for phytotoxicity rating AMARE: 14 days after application; for Post-emerge Herbicidal Activity AMARE: phytotoxicity rating 0-100 at 14 days after application
Outline: as §3

[22] = system: ivyleaf morningglory (Ipomoea hederacea, IPOHE); assay: as above; conditions: post-emerge; for phytotoxicity rating IPOHE: 14 days after application, rating scale 0-100; for Post-emerge Herbicidal Activity IPOHE: phytotoxicity rating 0-100 at 14 days after application
Outline: as §3

[23] = 63 g ai/ha, phytotoxicity rating 0-100, 14 days after application
[24] = 250 g ai/ha, phytotoxicity rating 0-100, 14 days after application
[25] = 63 g ai/ha, crop damage rating 0-100, 14 days after application
[26] = 250 g ai/ha, crop damage rating 0-100, 14 days after application
[27] = pre-emerge, rate 63 g ai/ha, phytotoxicity rating 0-100 at 14 days after application
[28] = pre-emerge, rate 250 g ai/ha, phytotoxicity rating 0-100 at 14 days after application
[29] = crop damage, pre-emerge, rate 63 g ai/ha, phytotoxicity rating 0-100 at 14 days after application
[30] = crop damage, pre-emerge, rate 250 g ai/ha, phytotoxicity rating 0-100 at 14 days after application

COc1c(Cl)cc(F)c(-n2c(=O)cc(C(F)(F)F)n(C)c2=O)c1NC(=O)OCc1ccc(Cl)c(Cl)c1 [4-32]
Pre-emerge Herbicidal Activity AMARE [1, 23]: 50
Pre-emerge Herbicidal Activity AMARE [1, 24]: 100
Pre-emerge Herbicidal Activity CORN [2, 25]: 0
Pre-emerge Herbicidal Activity CORN [2, 26]: 10
Pre-emerge Herbicidal Activity RICE [3, 25]: 0
Pre-emerge Herbicidal Activity RICE [3, 26]: 30
Pre-emerge Herbicidal Activity ABUTH [4, 23]: 0
Pre-emerge Herbicidal Activity ABUTH [4, 24]: 70
Pre-emerge Herbicidal Activity SETVI [5, 23]: 30
Pre-emerge Herbicidal Activity SETVI [5, 24]: 95
Pre-emerge Herbicidal Activity ECHCG [6, 23]: 0
Pre-emerge Herbicidal Activity ECHCG [6, 24]: 50
Pre-emerge Herbicidal Activity SORHA [7, 23]: 0
Pre-emerge Herbicidal Activity SORHA [7, 24]: 30
Pre-emerge Herbicidal Activity CASOB [8, 23]: 0
Pre-emerge Herbicidal Activity CASOB [8, 24]: 30
Pre-emerge Herbicidal Activity DIGSA [9, 23]: 20
Pre-emerge Herbicidal Activity DIGSA [9, 24]: 80
Pre-emerge Herbicidal Activity CHEAL [10, 23]: 80
Pre-emerge Herbicidal Activity CHEAL [10, 24]: 100
Pre-emerge Herbicidal Activity IPOHE [11, 23]: 0
Pre-emerge Herbicidal Activity IPOHE [11, 24]: 40
phytotoxicity rating CORN (crop damage) ([12]; 63 g ai/ha): 20
phytotoxicity rating CORN (crop damage) ([12]; 250 g ai/ha): 30
phytotoxicity rating RICE (crop damage) ([13]; 63 g ai/ha): 20
phytotoxicity rating RICE (crop damage) ([13]; 250 g ai/ha): 40
phytotoxicity rating ABUTH ([14]; 63 g ai/ha): 90
phytotoxicity rating ABUTH ([14]; 250 g ai/ha): 100
phytotoxicity rating SETVI ([15]; 63 g ai/ha): 30
phytotoxicity rating SETVI ([15]; 250 g ai/ha): 50
phytotoxicity rating ECHCG ([16]; 63 g ai/ha): 0
phytotoxicity rating ECHCG ([16]; 250 g ai/ha): 20
phytotoxicity rating SORHA ([17]; 63 g ai/ha): 10
phytotoxicity rating SORHA ([17]; 250 g ai/ha): 30
phytotoxicity rating CASOB ([18]; 63 g ai/ha): 80
phytotoxicity rating CASOB ([18]; 250 g ai/ha): 80
phytotoxicity rating DIGSA ([19]; 63 g ai/ha): 10
phytotoxicity rating DIGSA ([19]; 250 g ai/ha): 20
phytotoxicity rating CHEAL ([20]; 63 g ai/ha): 100
phytotoxicity rating CHEAL ([20]; 250 g ai/ha): 100
phytotoxicity rating AMARE ([21]; 63 g ai/ha, rating scale 0-100 (0 no damage, 100 complete death)): 100
phytotoxicity rating AMARE ([21]; 250 g ai/ha, rating scale 0-100): 100
phytotoxicity rating IPOHE ([22]; 63 g ai/ha): 100
phytotoxicity rating IPOHE ([22]; 250 g ai/ha): 100

Cc1ccc(COC(=O)Nc2c(C)c(Cl)cc(F)c2-n2c(=O)cc(C(F)(F)F)n(C)c2=O)cc1 [4-60]
Pre-emerge Herbicidal Activity AMARE [1, 27]: 100
Pre-emerge Herbicidal Activity AMARE [1, 28]: 100
Pre-emerge Herbicidal Activity CORN [2, 29]: 0
Pre-emerge Herbicidal Activity CORN [2, 30]: 30
Pre-emerge Herbicidal Activity RICE [3, 29]: 60
Pre-emerge Herbicidal Activity RICE [3, 30]: 70
Pre-emerge Herbicidal Activity ABUTH [4, 27]: 100
Pre-emerge Herbicidal Activity ABUTH [4, 28]: 100
Pre-emerge Herbicidal Activity SETVI [5, 27]: 90
Pre-emerge Herbicidal Activity SETVI [5, 28]: 100
Pre-emerge Herbicidal Activity ECHCG [6, 27]: 40
Pre-emerge Herbicidal Activity ECHCG [6, 28]: 70
Pre-emerge Herbicidal Activity SORHA [7, 27]: 30
Pre-emerge Herbicidal Activity SORHA [7, 28]: 50
Pre-emerge Herbicidal Activity CASOB [8, 27]: 90
Pre-emerge Herbicidal Activity CASOB [8, 28]: 100
Pre-emerge Herbicidal Activity DIGSA [9, 27]: 100
Pre-emerge Herbicidal Activity DIGSA [9, 28]: 100
Pre-emerge Herbicidal Activity CHEAL [10, 27]: 100
Pre-emerge Herbicidal Activity CHEAL [10, 28]: 100
Pre-emerge Herbicidal Activity IPOHE [11, 27]: 50
Pre-emerge Herbicidal Activity IPOHE [11, 28]: 100
Post-emerge Herbicidal Activity CORN ([12]; 63 g ai/ha): 25
Post-emerge Herbicidal Activity CORN ([12]; 250 g ai/ha): 55
Post-emerge Herbicidal Activity RICE ([13]; 63 g ai/ha): 50
Post-emerge Herbicidal Activity RICE ([13]; 250 g ai/ha): 70
Post-emerge Herbicidal Activity ABUTH ([14]; 63 g ai/ha): 100
Post-emerge Herbicidal Activity ABUTH ([14]; 250 g ai/ha): 100
Post-emerge Herbicidal Activity SETVI ([15]; 63 g ai/ha): 65
Post-emerge Herbicidal Activity SETVI ([15]; 250 g ai/ha): 90
Post-emerge Herbicidal Activity ECHCG ([16]; 63 g ai/ha): 60
Post-emerge Herbicidal Activity ECHCG ([16]; 250 g ai/ha): 50
Post-emerge Herbicidal Activity SORHA ([17]; 63 g ai/ha): 50
Post-emerge Herbicidal Activity SORHA ([17]; 250 g ai/ha): 50
Post-emerge Herbicidal Activity CASOB ([18]; 63 g ai/ha): 60
Post-emerge Herbicidal Activity CASOB ([18]; 250 g ai/ha): 100
Post-emerge Herbicidal Activity DIGSA ([19]; 63 g ai/ha): 40
Post-emerge Herbicidal Activity DIGSA ([19]; 250 g ai/ha): 60
Post-emerge Herbicidal Activity CHEAL ([20]; 63 g ai/ha): 100
Post-emerge Herbicidal Activity CHEAL ([20]; 250 g ai/ha): 100
Post-emerge Herbicidal Activity AMARE ([21]; 63 g ai/ha): 100
Post-emerge Herbicidal Activity AMARE ([21]; 250 g ai/ha): 100
Post-emerge Herbicidal Activity IPOHE ([22]; 63 g ai/ha): 100
Post-emerge Herbicidal Activity IPOHE ([22]; 250 g ai/ha): 100
